Measurements: patent US9974782B2, “Phosphodiesterase inhibitors and uses thereof” (THE TRUSTEES OF COLUMBIA UNIVERSITY IN THE CITY OF NEW YORK, priority 2008, dated 2018)
Where “and” joins values, the source holds several entries; their conditions need not be identical. Identical values can stand only once. Entries after “also recorded” stand apart in the source; their conditions may differ. Like-named read-outs stand apart in the source and are kept apart here.

Assays:
PDE5A1 = PDE5A1 (Homo sapiens, UniProt O76074); test: PDE assay for compound screening (IMAP TR-FRET kit, FAM-cGMP, fluorescence polarization); assay type: biochemical; conditions: 100 nM cGMP substrate; read-out: IC50 for PDE5
Experimental: Protocol of PDE Assay for Compound Screening
Materials: IMAPTM TR-FRET Screening Express with Progressive Binding Kit from Molecular Devices (R8160); FAM-Cyclic-3′,5′-GMP from Molecular Devices (R7507); PDE5 inhibitors.
Step 1: A dilution series of the inhibitors ranging from 300 pM to 10 μM in 1× PDE Assay Buffer are made. Subsequently, FAM-cGMP is diluted to 200 nM in 1×PDE Assay Buffer. PDE5A1 enzymes are then diluted to 0.125 ng/μl in 1×PDE Assay Buffer.
Step 2: The following components are added to a low binding black plate: a) […] of 200 nM FAM-cGMP (Final concentration will be 100 nM); b) 5 μl of the compounds (Final concentration=30 pM to 1 μM); c) 20 μl of PDE5A1 (0.125 ng/l) (Final amount=2.5 ng/reaction). The components are mixed and incubated at room temp. for 1 hour.
Step 3: A 1× reagent-binding buffer (75% 1× Binding Buffer A and 25% 1× Binding Buffer B) is then prepared followed by a Binding Solution that is prepared by diluting Binding Reagent with 1× reagent-binding Buffer (1:600). 120 μl of Binding Solution is then added to each well and the plate is incubated at room temperature for 1 hour.
Step 4: Fluorescence polarization is measured at excitation of 485 nm and emission of 520 nm in BioTek Synergy™ 2 microplate reader.

[1] = mouse, in vivo, po
Experimental: Timeline: 24 h-7 days. In the timeline, no fatal effects were observed.
Dosage: • Single dose at 500 mg/kg, i.p. • Single dose at 1000 mg/kg, i.p. • Single dose at 2000 mg/kg, p.o.

mice infused with Aβ42 = test: Contextual fear memory in mice infused with Aβ42; assay type: in vivo, mouse; conditions: 3 or 10 mg/Kg, p.o., immediately after training
Experimental: Our next goal was to check if YF012403 can attenuate synaptic and cognitive dysfunction in APP/PS1 mice. We induced LTP or contextual fear memory in the presence of oligomeric Aβ42, or vehicle [S18]. In the LTP experiments 200 nM Aβ42 or vehicle were perfused through the bath solution for 20 min prior to the application of the θ-burst. In the behavioral experiments 200 nM Aβ42 or vehicle were bilaterally infused 15 min prior to the foot shock into dorsal hippocampus of the animal that had been pre-implanted with a cannula the week before. Aβ reduced LTP and contextual fear memory (FIG. 49). However, YF012403 (50 nM, for 10 min prior to the θ-burst in the LTP experiments; 3 or 10 mg/Kg, p.o., immediately after training in the behavioral experiments) ameliorated the electrophysiological and behavioral deficits (FIG. 49).

[2] = tested on: APP processing (APP, sAPPα, sAPPβ, CT83, CT99); test: Western blot of APP full length and fragments in brain; assay type: in vivo, mouse; set-up: concentration or dose not given beside the values
Source text: Aβ originates from APP through a proteolytic process catalyzed by secretases, producing different fragments with characteristic functions^A24. APP is first cleaved by α and β secretases that generate soluble extracellular fragments, named α-APPs and β-APPs, and three forms of carboxyterminal fragments (CTFs): C83 by α-secretase cleavage, C89 and C99 by β-secretase cleavage^A25, A26. CTFs are substrates of γ-secretase generating C-terminal peptides of 57-58 residues (APP intracellular domain, AID) and Aβ fragments from CTFβ^A27. To assess whether the decrease in Aβ levels was related to changes in APP processing [see FIG. 20], western blot analyses on mice brain cortex for full length APP and its fragments was performed.
APP levels were found unchanged also in 7-10 months old transgenic mice (FIGS. 7B-7C). They have been treated with daily injections of sildenafil for 3 weeks at age of 3 months. […] Moreover, a decrease in sAPPβ in transgenic mice treated with sildenafil was observed (FIGS. 7B, 7E) showing a down-regulation of BACE activity. […] Thus, without being bound by theory, the reduction in Aβ levels by sildenafil is due to an action of the inhibitor onto α- and β-secretase activity.
Mice brains were homogenized in buffer (20 mM tris base, 1 mM EDTA, 1 mM EGTA, 250 mM sucrose) containing protease inhibitors. Part of the homogenates was ultracentrifugated at 100,000 g for 1 h and the supernatants were used to analyze the sAPPα and the sAPPβ fragments. The protein concentration in each homogenate was quantified to analyze the equal amounts of protein from each sample. Samples were loaded into the wells of a 4-12% Bis-Tris precast gel, electrophoresed and transferred according to manufacturer's protocol. After Ponceau S staining, membranes were washed and incubated in 5% non-fat milk powder in PBS for 1 h at room temperature. Then, they were incubated overnight at 4° C. with the following primary antibodies, diluted in goat serum 5% in PBS: mouse 22C11 for APP full length detection (1:4000, Sigma); mouse sAPPα and Swedish sAPPβ (1:4000 and 1:1000, IBL), rabbit AbD for CTFs (1:250, Zymed), mouse Tubulin as control (1:20.000, Sigma). After overnight incubation, membranes were washed 3 times in PBS for 30 minutes and incubated with goat anti-mouse or goat-anti-rabbit antibody, diluted in 5% non-fat milk powder in PBS (1:4000 and 1:2000). After 30 minutes washing in PBS, radiographic detection was performed after exposure to ECL (Pierce).

J20 mice = test: Fear conditioning and RAWM in J20 mice; assay type: in vivo, mouse
[3] = humans; cited from earlier work
cGMP = conditions: sildenafil 3 mg/kg; cited from earlier work
[4] = in vivo, cited from earlier work
[5] = 3-month-old APP/PS1 treated with sildenafil
[6] = APP/PS1 at 7-10 months, sildenafil for 3 weeks at 3 months

Structure (SMILES)	IC50 (PDE5A1)	safe dose in acute toxicity test [1]	effect on contextual fear memory deficit in Aβ42-infused mice in words (mice infused with Aβ42)	APP full length, % of control [2, 5] [%]	CT83, % of control [2, 5] [%]	CT99, % of control [2, 5] [%]	sAPPα, % of control [2, 5] [%]	sAPPβ, % of control [2, 5] [%]	APP full length, % of control [2, 6] [%]	CT83, % of control [2, 6] [%]	CT99, % of control [2, 6] [%]	sAPPα, % of control [2, 6] [%]	sAPPβ, % of control [2, 6] [%]	effect on contextual learning in words (J20 mice; 3 mg/kg i.p. immediately after training)	effect on spatial working memory in words (J20 mice; daily injection after training for 3 weeks)	in vivo half-life [3] [h]	cGMP concentration in the hippocampus (cGMP) [µM]	ability to cross the BBB in words [4]	ability to cross the BBB in words ([4]; listed as Sildenafil)
COc1ccc(CNc2c(CO)cnc3c(C4CC4)cc(C#N)cc23)cc1Cl [YF012403, 4-(3-chloro-4-methoxybenzylamino)-8-cyclopropyl-3-(hydroxymethyl)-quinoline-6-carbonitrile]	1.2 nM and 0.27 nM	up to 2 g/kg	ameliorates the contextual fear memory deficit; also recorded: ameliorated																
CCCc1nn(C)c2c(=O)[nH]c(-c3cc(S(=O)(=O)N4CCN(C)CC4)ccc3OCC)nc12 [sildenafil, 5-[2-ethoxy-5-(4-methyl-1-piperazinylsulphonyl)phenyl]-1-methyl-3-n-propyl-1,6-dihydro-7H-pyrazolo[4,3-d]pyrimidin-7-one]				125.75±4.44	74.5±6.73	95.25±5.66	86.25±5.02	43.25±3.90	107.4±3.88	82.75±6.78	87.2±7.63	153.65±11.95	25.6±2.83	improved contextual learning	improved spatial working memory	~4	~2.5	reported to cross the blood brain barrier; also recorded: reported to cross the BBB	reported to cross the BBB
